Columns and labels:
Type in all cases: biochemical
[1] = target: T1, cytochrome bd (C. glutamicum) (Corynebacterium glutamicum, UniProt Q9KWL8); test: O2 consumption, Clark-type electrode; settings: 200 μM quinone, 10 mM DTT; 0.025% DDM, pH 7.5, 37 °C; no cardiolipin
T1 construct: gene cydA; expressed from pPC4-cydABDC in C. glutamicum delta-ctaD, purified from membranes in DDM (CydD and CydC are not oxidase subunits)

[2] = target: T2, cytochrome bd (G. thermodenitrificans) (Geobacillus stearothermophilus, UniProt Q9Z9N1); test: O2 consumption, Clark-type electrode; settings: 200 μM quinone, 10 mM DTT; 0.025% DDM, pH 7.5, 37 °C; no cardiolipin
T2 construct: gene cbdA; CbdAB expressed from pSTE-cbdAB in G. thermodenitrificans K1041, purified from membranes in MEGA9+10
T2 sequence (Q9Z9N1 1-448): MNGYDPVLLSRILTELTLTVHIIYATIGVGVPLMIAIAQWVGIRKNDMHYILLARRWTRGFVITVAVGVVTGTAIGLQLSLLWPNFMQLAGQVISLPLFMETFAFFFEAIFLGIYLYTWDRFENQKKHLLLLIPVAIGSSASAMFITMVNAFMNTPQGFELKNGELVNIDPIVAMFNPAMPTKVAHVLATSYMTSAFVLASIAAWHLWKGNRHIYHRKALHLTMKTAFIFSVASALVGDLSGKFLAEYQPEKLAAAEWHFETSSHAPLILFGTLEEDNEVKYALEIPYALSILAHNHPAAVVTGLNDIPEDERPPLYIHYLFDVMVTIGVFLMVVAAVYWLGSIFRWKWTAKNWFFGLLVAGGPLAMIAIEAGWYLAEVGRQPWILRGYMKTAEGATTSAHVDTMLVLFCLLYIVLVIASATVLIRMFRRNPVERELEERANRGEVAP
T2 sequence (Q9Z9N0 1-342 partner): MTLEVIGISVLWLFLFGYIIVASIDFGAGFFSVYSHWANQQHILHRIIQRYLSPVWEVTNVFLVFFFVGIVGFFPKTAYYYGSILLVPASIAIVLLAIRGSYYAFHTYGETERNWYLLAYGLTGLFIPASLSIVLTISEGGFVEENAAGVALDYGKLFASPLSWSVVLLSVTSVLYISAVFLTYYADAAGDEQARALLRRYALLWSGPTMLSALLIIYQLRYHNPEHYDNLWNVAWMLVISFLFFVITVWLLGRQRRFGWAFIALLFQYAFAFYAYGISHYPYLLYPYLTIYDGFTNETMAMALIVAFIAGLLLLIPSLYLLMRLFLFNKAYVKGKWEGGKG

[3] = target: T3, cytochrome bd (E. coli) (Escherichia coli, UniProt P0ABJ9); test: O2 consumption activation, Clark-type electrode; settings: activator; bovine heart lipid, mixed acyl chains (primarily linoleic acid); ubiquinol-1 substrate; 0.025% DDM, pH 7.5, 37 °C
T3 construct: gene cydA; CydABX complex, Strep-tag, expressed in E. coli MB43, streptactin-purified in DDM
T3 sequence (P0ABJ9 1-522): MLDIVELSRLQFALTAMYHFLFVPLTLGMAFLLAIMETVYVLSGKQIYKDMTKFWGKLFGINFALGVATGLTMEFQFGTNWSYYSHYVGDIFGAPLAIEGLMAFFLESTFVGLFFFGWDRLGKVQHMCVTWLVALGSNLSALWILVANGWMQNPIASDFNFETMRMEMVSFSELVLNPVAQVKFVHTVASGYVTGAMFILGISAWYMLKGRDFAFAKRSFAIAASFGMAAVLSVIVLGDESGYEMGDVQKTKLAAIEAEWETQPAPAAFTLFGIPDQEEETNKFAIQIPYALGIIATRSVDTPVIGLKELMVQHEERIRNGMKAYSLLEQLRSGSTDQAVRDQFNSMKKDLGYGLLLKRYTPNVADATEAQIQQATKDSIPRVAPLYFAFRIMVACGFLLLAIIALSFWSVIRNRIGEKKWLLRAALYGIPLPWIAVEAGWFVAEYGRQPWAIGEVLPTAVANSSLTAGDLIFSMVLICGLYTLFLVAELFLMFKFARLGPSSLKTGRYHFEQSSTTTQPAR
T3 sequence (P0ABK2 1-379 partner): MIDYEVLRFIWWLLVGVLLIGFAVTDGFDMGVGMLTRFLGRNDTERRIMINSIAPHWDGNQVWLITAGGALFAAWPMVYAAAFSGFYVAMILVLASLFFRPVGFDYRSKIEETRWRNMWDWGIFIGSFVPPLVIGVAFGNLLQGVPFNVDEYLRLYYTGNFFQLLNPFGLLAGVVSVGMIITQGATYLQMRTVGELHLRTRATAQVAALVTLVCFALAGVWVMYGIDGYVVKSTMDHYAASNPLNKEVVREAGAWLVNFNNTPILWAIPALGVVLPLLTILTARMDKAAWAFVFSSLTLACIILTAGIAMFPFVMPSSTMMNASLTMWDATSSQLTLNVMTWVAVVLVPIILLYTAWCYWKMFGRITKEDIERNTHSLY
T3 sequence (P56100 1-37 partner): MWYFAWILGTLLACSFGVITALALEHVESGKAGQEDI
From the text: O2 consumption activation, Clark-type electrode on cytochrome bd (E. coli) | We examined the effect of CL and observed ~ twofold activation of the oxygen consumption activity

[4] = target: T2, cytochrome bd (G. thermodenitrificans); test: O2 consumption inhibition, Clark-type electrode; settings: menaquinol-1 substrate (200 μM quinone, 10 mM DTT); 0.025% DDM, pH 7.5, 37 °C; no cardiolipin
[5] = target: T1, cytochrome bd (C. glutamicum); test: O2 consumption inhibition, Clark-type electrode; settings: menaquinol-1 substrate (200 μM quinone, 10 mM DTT); 0.025% DDM, pH 7.5, 37 °C; no cardiolipin

CC(C)=CCc1c(C)c(O)c2ccccc2c1O [menaquinol-1]
O2 consumption, Clark-type electrode [1]: using menaquinol-1 instead of ubiquinol-1 as substrate | O2 consumption, Clark-type electrode [2]: using menaquinol-1 instead of ubiquinol-1 as substrate

cardiolipin [CL]
fold activation at 10 μM [3]: ~ 2 fold

CC(C)=CCC/C(C)=C/CC/C(C)=C/Cc1c(C)[nH]c2ccccc2c1=O [aurachin D]
inhibition at 400 nM [4]: G. thermodenitrificans cytochrome bd was sensitive to inhibition by aurachin D | inhibition at 400 nM [5]: oxygen consumption activity in the presence and absence of CL was sensitive to inhibition by aurachin D

— publication PMC8044227, “Cardiolipin enhances the enzymatic activity of cytochrome bd and cytochrome bo3 solubilized in dodecyl-maltoside” (Scientific Reports, 2021)
